We go through 4 molecules from ChEMBL document CHEMBL1128713, “N-alkylated nitrogen-in-the-ring sugars: conformational basis of inhibition of glycosidases and HIV-1 replication” (J Med Chem, 1995).

For one assay, the system named is MOLT-4. Briefly: Concentration giving 50% inhibition of HIV-1 induced cytopathogenicity in MOLT-4 cells. Format: functional, cell-based, Homo sapiens. Background: Cytopathic effects are the visible damage that an infection or toxin causes in cultured cells.
Assay [1] can be described thus: Inhibition of endoplasmic reticulum Alpha-Glucosidase II in rat liver. Format: tissue-based.
Assay [2] in a line: Inhibition of lysosomal Alpha-Glucosidase II in rat liver.
The target of assay [3] is T1, Alpha-mannosidase 2 (Rattus norvegicus, UniProt P28494).
T1 sequence (P28494 whole entry): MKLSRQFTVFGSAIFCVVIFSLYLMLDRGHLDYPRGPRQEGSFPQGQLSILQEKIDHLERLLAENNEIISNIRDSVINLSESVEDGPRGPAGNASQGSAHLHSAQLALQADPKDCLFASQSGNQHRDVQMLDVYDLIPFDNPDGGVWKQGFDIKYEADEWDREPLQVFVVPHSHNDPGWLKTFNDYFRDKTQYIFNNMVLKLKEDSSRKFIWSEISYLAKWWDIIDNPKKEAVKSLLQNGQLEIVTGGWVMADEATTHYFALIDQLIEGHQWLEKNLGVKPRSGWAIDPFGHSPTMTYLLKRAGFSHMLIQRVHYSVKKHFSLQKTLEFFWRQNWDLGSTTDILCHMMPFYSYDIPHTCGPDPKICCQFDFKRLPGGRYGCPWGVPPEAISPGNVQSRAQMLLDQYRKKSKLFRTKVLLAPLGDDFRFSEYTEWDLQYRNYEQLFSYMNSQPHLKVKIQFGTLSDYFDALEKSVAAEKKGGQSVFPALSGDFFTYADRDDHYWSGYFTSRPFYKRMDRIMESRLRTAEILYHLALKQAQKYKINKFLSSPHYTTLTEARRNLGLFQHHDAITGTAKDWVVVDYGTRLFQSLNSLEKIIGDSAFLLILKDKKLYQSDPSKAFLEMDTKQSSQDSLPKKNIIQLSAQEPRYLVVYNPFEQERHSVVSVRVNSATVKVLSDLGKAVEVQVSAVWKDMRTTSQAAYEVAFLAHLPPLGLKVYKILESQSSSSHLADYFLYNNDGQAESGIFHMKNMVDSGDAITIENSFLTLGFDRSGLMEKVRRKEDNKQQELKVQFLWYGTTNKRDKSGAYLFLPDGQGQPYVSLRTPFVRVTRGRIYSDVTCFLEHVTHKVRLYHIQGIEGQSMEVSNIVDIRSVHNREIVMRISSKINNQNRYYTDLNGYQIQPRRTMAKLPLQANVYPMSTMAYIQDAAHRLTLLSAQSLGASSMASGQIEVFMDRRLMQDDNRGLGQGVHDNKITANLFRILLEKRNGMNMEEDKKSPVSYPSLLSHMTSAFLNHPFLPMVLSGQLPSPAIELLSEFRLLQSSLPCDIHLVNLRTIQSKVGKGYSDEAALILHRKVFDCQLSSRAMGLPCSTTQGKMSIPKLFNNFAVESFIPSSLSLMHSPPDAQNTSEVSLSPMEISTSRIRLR
Put plainly: Inhibition of golgi Alpha-mannosidase II in rat liver. The assay is classed as tissue-based.

For a further assay, the target named is T2, Alpha-mannosidase 2C1 (Rattus norvegicus, UniProt P21139).
T2 sequence (P21139 whole entry): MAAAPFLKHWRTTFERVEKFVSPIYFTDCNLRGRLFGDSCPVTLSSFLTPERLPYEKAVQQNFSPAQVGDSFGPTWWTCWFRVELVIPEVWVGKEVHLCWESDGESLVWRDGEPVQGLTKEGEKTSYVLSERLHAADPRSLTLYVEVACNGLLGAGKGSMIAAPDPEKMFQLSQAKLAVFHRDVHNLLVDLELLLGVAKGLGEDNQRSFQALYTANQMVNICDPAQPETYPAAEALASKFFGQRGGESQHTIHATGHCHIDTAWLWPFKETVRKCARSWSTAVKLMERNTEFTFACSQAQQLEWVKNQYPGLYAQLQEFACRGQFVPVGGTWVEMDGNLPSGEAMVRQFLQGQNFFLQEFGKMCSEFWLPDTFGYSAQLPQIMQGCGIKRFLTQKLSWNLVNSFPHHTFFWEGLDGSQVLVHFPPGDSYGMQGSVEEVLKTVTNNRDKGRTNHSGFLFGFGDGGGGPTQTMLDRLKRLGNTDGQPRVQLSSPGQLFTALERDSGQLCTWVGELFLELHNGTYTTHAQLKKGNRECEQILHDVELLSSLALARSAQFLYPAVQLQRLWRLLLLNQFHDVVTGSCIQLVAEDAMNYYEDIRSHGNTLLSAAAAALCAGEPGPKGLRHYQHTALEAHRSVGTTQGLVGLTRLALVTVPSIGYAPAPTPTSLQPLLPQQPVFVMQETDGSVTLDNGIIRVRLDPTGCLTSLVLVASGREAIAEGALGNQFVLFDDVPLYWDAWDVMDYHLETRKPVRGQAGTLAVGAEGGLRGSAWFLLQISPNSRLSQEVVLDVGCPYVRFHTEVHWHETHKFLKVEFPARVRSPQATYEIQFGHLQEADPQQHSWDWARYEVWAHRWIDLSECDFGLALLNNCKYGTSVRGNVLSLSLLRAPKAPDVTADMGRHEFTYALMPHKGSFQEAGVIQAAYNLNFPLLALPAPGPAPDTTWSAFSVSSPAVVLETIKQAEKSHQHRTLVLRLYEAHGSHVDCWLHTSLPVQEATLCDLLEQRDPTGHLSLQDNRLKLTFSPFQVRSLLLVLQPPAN
Put plainly: Inhibition of soluble Alpha-mannosidase II in rat liver. The assay is classed as tissue-based.

A short description of assay [4]: Inhibition of Cellobiase in rat intestinal brush border membranes by D-glucose oxidase-peroxidase method. Format: cell membranes, Membrane.
A further assay addresses T3, Trehalase (Rattus norvegicus, UniProt O70282).
T3 sequence (O70282 whole entry): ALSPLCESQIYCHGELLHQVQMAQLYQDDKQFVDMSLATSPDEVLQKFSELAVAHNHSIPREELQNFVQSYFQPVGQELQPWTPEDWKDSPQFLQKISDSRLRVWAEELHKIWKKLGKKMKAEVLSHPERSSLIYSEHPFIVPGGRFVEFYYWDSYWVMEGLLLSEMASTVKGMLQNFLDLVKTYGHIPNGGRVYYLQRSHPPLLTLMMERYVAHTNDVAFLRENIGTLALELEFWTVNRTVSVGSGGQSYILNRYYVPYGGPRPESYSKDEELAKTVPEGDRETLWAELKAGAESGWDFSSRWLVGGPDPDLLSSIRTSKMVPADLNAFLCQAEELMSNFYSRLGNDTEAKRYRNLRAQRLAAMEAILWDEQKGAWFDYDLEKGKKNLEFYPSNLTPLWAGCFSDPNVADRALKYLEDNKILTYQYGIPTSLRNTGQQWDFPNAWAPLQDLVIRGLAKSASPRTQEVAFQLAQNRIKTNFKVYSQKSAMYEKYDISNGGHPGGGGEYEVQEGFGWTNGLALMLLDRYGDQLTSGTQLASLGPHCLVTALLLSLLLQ
Put plainly: Inhibition of Glycosidases (trehalase)in rat intestinal brush border membranes by D-glucose oxidase-peroxidase method. The assay is classed as cell membranes, Membrane.

Assay [5] concerns the target T1, Alpha-mannosidase 2. Briefly: Competitive Inhibitory activity against Golgi Alpha-mannosidase II.
The target in assay [6] is T4, Sucrase-isomaltase, intestinal (Rattus norvegicus, UniProt P23739). Briefly: Inhibition of Sucrase in rat intestinal brush border membranes by D-glucose oxidase-peroxidase method. Format: cell membranes, Membrane.
T4 sequence (P23739 1-1013 limits assumed): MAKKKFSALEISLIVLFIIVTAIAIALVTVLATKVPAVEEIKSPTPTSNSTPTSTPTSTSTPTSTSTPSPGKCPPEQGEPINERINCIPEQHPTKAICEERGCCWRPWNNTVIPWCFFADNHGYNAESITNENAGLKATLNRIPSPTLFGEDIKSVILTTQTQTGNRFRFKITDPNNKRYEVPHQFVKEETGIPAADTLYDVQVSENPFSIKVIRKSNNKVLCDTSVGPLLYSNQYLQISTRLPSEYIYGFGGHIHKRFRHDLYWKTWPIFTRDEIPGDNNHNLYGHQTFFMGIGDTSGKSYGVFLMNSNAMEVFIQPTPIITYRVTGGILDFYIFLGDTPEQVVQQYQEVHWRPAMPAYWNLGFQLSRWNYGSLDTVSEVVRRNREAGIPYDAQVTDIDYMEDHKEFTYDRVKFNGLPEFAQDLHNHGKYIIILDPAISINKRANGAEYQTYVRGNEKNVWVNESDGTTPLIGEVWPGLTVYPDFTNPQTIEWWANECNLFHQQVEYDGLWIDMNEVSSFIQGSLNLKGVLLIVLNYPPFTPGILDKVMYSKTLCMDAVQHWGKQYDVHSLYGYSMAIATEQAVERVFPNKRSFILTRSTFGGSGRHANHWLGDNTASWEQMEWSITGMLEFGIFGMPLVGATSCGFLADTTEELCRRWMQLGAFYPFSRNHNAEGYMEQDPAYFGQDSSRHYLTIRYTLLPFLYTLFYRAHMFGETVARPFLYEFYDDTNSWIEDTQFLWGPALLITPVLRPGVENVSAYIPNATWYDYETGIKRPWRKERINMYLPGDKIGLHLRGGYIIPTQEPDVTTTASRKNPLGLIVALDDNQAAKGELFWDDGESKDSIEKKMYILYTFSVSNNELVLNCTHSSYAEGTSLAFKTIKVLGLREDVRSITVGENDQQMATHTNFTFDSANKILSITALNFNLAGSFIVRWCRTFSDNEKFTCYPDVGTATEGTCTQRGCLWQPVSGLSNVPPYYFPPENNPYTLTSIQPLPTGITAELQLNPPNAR
T4 sequence (P23739 1014-1841 limits assumed): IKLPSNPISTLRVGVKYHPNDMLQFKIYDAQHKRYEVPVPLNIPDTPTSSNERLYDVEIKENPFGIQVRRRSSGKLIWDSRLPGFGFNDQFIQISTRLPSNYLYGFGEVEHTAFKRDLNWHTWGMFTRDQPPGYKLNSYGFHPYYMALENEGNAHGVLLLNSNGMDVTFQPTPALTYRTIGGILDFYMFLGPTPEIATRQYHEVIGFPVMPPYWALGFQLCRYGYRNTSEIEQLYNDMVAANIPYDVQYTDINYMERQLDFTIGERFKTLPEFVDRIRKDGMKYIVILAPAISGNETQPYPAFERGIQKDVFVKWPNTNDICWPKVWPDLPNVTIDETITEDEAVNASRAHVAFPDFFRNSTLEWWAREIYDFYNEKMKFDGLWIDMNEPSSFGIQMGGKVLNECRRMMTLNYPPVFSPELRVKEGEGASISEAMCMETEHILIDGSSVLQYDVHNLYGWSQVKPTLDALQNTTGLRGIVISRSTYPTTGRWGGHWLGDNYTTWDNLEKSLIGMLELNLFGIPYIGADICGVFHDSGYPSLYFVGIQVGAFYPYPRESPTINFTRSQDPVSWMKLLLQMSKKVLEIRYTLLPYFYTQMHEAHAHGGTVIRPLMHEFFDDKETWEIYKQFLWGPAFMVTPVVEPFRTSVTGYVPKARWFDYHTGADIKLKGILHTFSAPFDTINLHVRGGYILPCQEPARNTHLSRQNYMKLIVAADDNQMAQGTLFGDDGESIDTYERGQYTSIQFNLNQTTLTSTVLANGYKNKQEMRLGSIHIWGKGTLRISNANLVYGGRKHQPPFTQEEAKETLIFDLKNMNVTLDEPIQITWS
For assay [7], the target named is T4, Sucrase-isomaltase, intestinal. Briefly: Inhibition of Glycosidases (isomaltase)in rat intestinal brush border membranes by D-glucose oxidase-peroxidase method. Format: cell membranes, Membrane.

Broadly, the EC50 is the concentration that produces a half-maximal response. A higher EC50 goes with weaker potency. For orientation: IC50 means the concentration needed to halve the response being measured. Lower therefore signals greater potency in that assay. In general, Ki refers to a measure of affinity in units of concentration, obtained from inhibition or displacement. Read a high Ki as lower affinity.

Converted amounts (≈) assume the structure as drawn.

`CCCCN1C[C@H](O)[C@@H](O)[C@H](O)[C@H]1CO` showed an EC50 with MOLT-4 of 0.037 mg/mL (≈ 169 µM). In addition, the IC50 in assay [1] is 15 µM; in [2], 5.3 µM; against Alpha-mannosidase 2 [3], < 50 µM; on Alpha-mannosidase 2C1 it was < 50 µM; in assay [4] it was < 50 µM; against Trehalase, 13 µM. Further, the Ki on Alpha-mannosidase 2 [5] was < 50 µM.

For `CCCCN1C[C@@H](O)[C@H](O)[C@H]1CO`, the EC50 in the assay on MOLT-4 was > 0.1 mg/mL. Further, the IC50 is 200 µM in assay [1]; 750 µM in assay [2]; 270 µM in assay [6]; 130 µM against Alpha-mannosidase 2 [3]; < 50 µM against Alpha-mannosidase 2C1; < 50 µM in assay [4]. Moreover, the IC50 against Trehalase is < 50 µM; in assay [7], 340 µM. Besides, on Alpha-mannosidase 2 [5], the Ki is 120 µM.

The molecule `CN1C[C@H](O)[C@@H](O)[C@H](O)[C@H]1CO` displayed an EC50 in the assay with MOLT-4 of 0.1 mg/mL (≈ 564 µM). The IC50 in assay [1] is 20 µM; in assay [2] it was 1.5 µM; in [6], 0.04 µM; at Alpha-mannosidase 2 [3], < 50 µM; on Alpha-mannosidase 2C1, 500 µM; at Trehalase, 28 µM. In addition, in [7], the IC50 came out at 4.4 µM. Besides, the Ki at Alpha-mannosidase 2 [5] is < 50 µM.

For the molecule `CN1C[C@@H](O)[C@H](O)[C@H]1CO`, in the assay on MOLT-4, the EC50 is > 0.1 mg/mL. For the same molecule, the half-inhibitory concentration (IC50) in [1] was 310 µM; in assay [2], 180 µM; in assay [6], 70 µM; against Alpha-mannosidase 2 [3], 64 µM; against Alpha-mannosidase 2C1, < 50 µM; in assay [4], < 50 µM. The IC50 is < 50 µM at Trehalase and 100 µM in assay [7]. This molecule yielded an inhibitory constant (Ki) at Alpha-mannosidase 2 [5] of 51 µM.
